Experimental data reported in patent US20050169944A1, “Increasing tumor oxygen content by administration of stressed cells” (priority 2002, published 2005).

Tests used:
[1] = tested on: FSaIIC murine fibrosarcoma; experiment: Tumor growth delay with melphalan (time to 500 mm^3); assay type: in vivo, C3H mice; settings: melphalan 10 mg/kg i.p. plus 50 μl of 5 or 20 μg of ozone per ml of oxygen by tail vein injection, then 4 days; FIG. 8
Protocol: 8 week old male C3H mice were inoculated with 2×10^6 FSaIIC murine fibrosarcoma cells in the hind limb. When tumors reached a volume of 50 mm^3, animal were divided into 4 groups of 10 mice. Group I was untreated, Group II was administered a dose of 10 mg/kg melphalan by intraperitoneal injection. Group III was administered melphalan together with 50 μl of untreated syngeneic blood injected intramuscularly in the non-tumor bearing hind limb. Group IV was administered melphalan with 50 μl of syngeneic blood treated with 20 μl ozone/ml of oxygen. Following the initial melphalan injection, animals in Groups III and IV continued receiving intramuscular injections of 50 μl of untreated syngeneic blood, or 50 μl of syngeneic blood treated with 20 μl ozone/ml of oxygen, respectively for 4 days, one injection per day. All animals were observed until tumors attained a volume of 500 mm^3. The delay in tumor time to achieve 500 mm^3 volume is illustrated in FIG. 4.
8 week old male C3H mice were inoculated with 2×10^6 FSaIIC murine fibrosarcoma cells in the hind limb. When tumors reached a volume of 50 mm^3, animal were divided into 4 groups of 10 mice. Group I was untreated, Group II was administered a dose of 10 mg/kg melphalan by intraperitoneal injection. Group HI was administered melphalan together with an intramuscular injection of 1×10^6 syngeneic untreated mononuclear cells. […]

[2] = Tolerability of intravenous ozone in tumor bearing mice; assay type: in vivo, C3H mice; settings: 50 μl of 5 or 20 μg of ozone per ml of oxygen, tail vein, 5 daily injections, with melphalan
Protocol: In order to stress cells in vivo, ozone at 5 μg per ml of oxygen, or 20 μg per ml of oxygen was injected directly into the tail vein of tumor bearing mice. Such injections are performed by filling a 1 cc syringe with the indicated concentration of ozone in medical grade oxygen. The gas is slowly injected into the tail vein so not to induce embolism. Due to the high solubility of oxygen and ozone in blood, embolism formation is not usually a problem.
8 week old male C3H mice were inoculated with 2×10^6 FSaIIC murine fibrosarcoma cells in the hind limb. When tumors reached a volume of 50 mm^3, animal were divided into 4 groups of 10 mice. Group I was untreated, Group II was administered a dose of 10 mg/kg melphalan by intraperitoneal injection. Group III was administered melphalan together with 50 μl of 5 μg of ozone per ml of oxygen by tail vein injection. Group IV was administered melphalan with 50 μl of 20 μg of ozone per ml of oxygen by tail vein injection. Following the initial melphalan injection, animals in Groups III and IV continued receiving intravenous injections of 50 μl of 5 μg of ozone per ml of oxygen, or 50 μl of 20 μg of ozone per ml of oxygen, respectively for 4 days, one injection per day. All animals were observed until tumors attained a volume of 500 mm^3. The delay in tumor time to achieve […] volume is illustrated in FIG. 8.

Compound: O=[O+][O-] [intravenous ozone, ozone]
- delay in time to achieve 500 mm^3 tumor volume with melphalan [1]: increased the tumor inhibitory effects of melphalan
- tolerability [2]: well tolerated
